Data as given in patent publication US9593140B2, “Antibacterial tylosin derivatives and methods for their preparation” (Bayer Intellectual Property GmbH, priority 2011, dated 2017).
In brackets after ≈: the same amount, converted by molar mass.

Assays:
Format in all cases: cell-based
[1] = test system: Mannhemia hemolytica KB345; assay: Paper disc assay, M. hemolytica KB345 (Tilmicosin-sensitivity strain); settings: for zone of inhibition at 1 mg/disc: 1 mg/6 mm disk
Experimental: (§1) (1) Antibacterial Activities Against Mannheimia and Pasteurella were Determined by the Following Steps:
(§2) 1) M. hemolytica KB345 (Tilmicosin-sensitivity strain) and M. hemolytica KB346 (Tilmicosin-low sensitivity strain) were provided. KB 345 strain stored at −80° C. was seeded to BHIB agar medium (10 mL) by using Microbank beads (Pro-Lab) and platinum nail. After statically incubating the KB 345 strain for 24 hours at 37° C., it was seeded to maintaining slant BHIB agar medium (7 mL) by using platinum loop, further statically incubated for 24 hours at 37° C. to obtain slant. One platinum loop of KB 345 strain stored at the slant was inoculated into a large test tube charged with BHIB liquid medium (10 mL) and then incubated for 24 hours at 37° C. with shaking.
(§3) 2) A paper disc (ADVANTEC, Φ:6 mm) was impregnated with a solution of test compound and dried under reduced pressure.
(§4) 3) To a melted BHIB agar medium was inoculated 1% of the broth obtained from step 1) above to prepare a test plate. After the medium set, the paper disc prepared in step 2) above was put on the plate and it was incubated at 37° C.
(§5) 4) After one day, the inhibition zone diameter and clarity (A to E) were determined.

[2] = test system: Bacillus subtilis ATCC6633; assay: Paper disc assay, Bacillus subtilis (S)
Experimental: (§6) (2) Antibacterial activities against other bacteria were determined with Micrococcus luteus ATCC9341 (1), Bacillus subtilis […] (s), Escherichia coli NIHJ (c), Xanthomonas campestris KB88 (X), Mucor racemosus IFO 4581 (Mu) and Candida albicans ATCC 64548 (Ca).
(§7) Bacillus subtilis ATCC6633 was incubated in Davis synthetic medium and then the seed broth was combined with the medium in the ratio of 1:99 to obtain a test plate. Micrococcus luteus ATCC9341, Escherichia coli NIHJ and Xanthomonas campestris KB88 were respectively incubated in Nutrient agar medium and inoculated at 0.2%, 0.5% and 1.0%. Mucor racemosus IFO 4581 and Candida albicans ATCC 64548 were respectively incubated in GY agar medium and then inoculated at 0.3% and 0.2%.
(§8) A paper disc (ADVANTEC, Φ:6 mm) was impregnated with a solution of test compound and dried under reduced pressure. The paper disc was put on the test plate and it was incubated for 24 hours at 37° C. After incubation, the inhibition zone diameter and clarity (A to E) were determined.

[3] = test system: Micrococcus luteus ATCC9341; assay: Paper disc assay, Micrococcus luteus (l)
Experimental: as §6, §7, §8

[4] = test system: Escherichia coli NIHJ; assay: Paper disc assay, Escherichia coli (c)
Experimental: as §6, §7, §8

[5] = test system: Xanthomonas campestris KB88; assay: Paper disc assay, Xanthomonas campestris (X)
Experimental: as §6, §7, §8

[6] = test system: Mannhemia hemolytica KB346; assay: Paper disc assay, M. hemolytica KB346 (Tilmicosin-low sensitivity strain)
Experimental: as §1, §2, §3, §4, §5
For KB346 strain, the same procedures were repeated.

[7] = test system: Mannheimia Haemolytica, 3 isolates; assay: Minimal inhibitory concentrations, cattle pathogen isolates; settings: for MIC: Mannheimia haemolytica
Experimental: (§9) The antibacterial activity by the compounds of the present invention may be measured using a number of assays available in the art. […] Minimal inhibitory concentrations (MICs) were determined against the most prevalent pathogens in cattle (Mannheimia Haemolytica, 3 isolates) and swine (A. pleuropneumoniae, 6 isolates).The results are summarized in Table 7.

[8] = test system: A. pleuropneumoniae, 6 isolates; assay: Minimal inhibitory concentrations, swine pathogen isolates
Experimental: as §9

CC[C@H]1OC(=O)C[C@@H](O)[C@H](C)[C@@H](O[C@@H]2O[C@H](C)[C@@H](O)C(N(C)C)C2O)[C@@H](CCN2CC(C)CC(C)C2)C[C@@H](C)C(=O)/C=C/C(C)=C/[C@@H]1CO[C@@H]1OC(C)[C@@H](O)[C@H](OC)C1OC (some centres unmarked) [Tilmicosin, reference compound]
zone of inhibition at 1 mg/disc ([1]; 24 h, Table 2): 10.7 mm
zone of inhibition at 3 mg/disc ([1]; 24 h, Table 2, 3 mg/6 mm disk): 13.5 mm
Inhibition zone (mm) ([2]; 0.1 mg/6 mm disc): 14 mm
Inhibition zone (mm) ([2]; 1 mg/6 mm disc): 11 mm
Inhibition zone (mm) ([2]; 10 mg/6 mm disc): 18 mm
Inhibition zone (mm) ([3]; 0.1 mg/6 mm disc): 12 mm
Inhibition zone (mm) ([3]; 1 mg/6 mm disc): 19 mm
Inhibition zone (mm) ([3]; 10 mg/6 mm disc): 27.5 mm
Inhibition zone (mm) ([4]; 1 mg/6 mm disc): 13 mm
Inhibition zone (mm) ([4]; 10 mg/6 mm disc): 20 mm
Inhibition zone (mm) ([5]; 0.1 mg/6 mm disc): 12 mm
Inhibition zone (mm) ([5]; 1 mg/6 mm disc): 20 mm
Inhibition zone (mm) ([5]; 10 mg/6 mm disc): 30 mm

CCC1OC(=O)CC(O)C(C)C(OC2OC(C)C(O)C(N(C)C)C2O)C(CCN=[N+]=[N-])CC(C)C(=O)C=CC(C)=CC1COC1OC(C)C(O)C(OC)C1OC (centres unmarked) [YT11, 20-azido-20-deoxodesmycosin]
Inhibition zone (mm) ([1]; Table 2, 3 mg/6 mm disk): 10.0 mm
Inhibition zone (mm) ([1]; Table 2, 10 mg/6 mm disk): 13.0 mm
Inhibition zone (mm) ([1]; Table 2, 30 mg/6 mm disk): 16.0 mm
Inhibition zone (mm) ([1]; Table 2, 100 mg/6 mm disk): 18.0 mm
Inhibition zone (mm) ([6]; Table 3, 100 mg/6 mm disk): 11.0 mm

CC[C@H]1OC(=O)C[C@@H](O)[C@H](C)[C@@H](O[C@@H]2O[C@H](C)[C@@H](O)[C@H](N(C)C)[C@H]2O)[C@@H](CCn2cc(-c3ccsc3)nn2)C[C@@H](C)C(=O)/C=C/C(C)=C/[C@@H]1CO[C@@H]1O[C@H](C)[C@@H](O)[C@@H](OC)[C@H]1OC [YT14, 20-(4-(thiophene-3-yl)-1H-1,2,3-triazol-1-yl)-20-deoxodesmycosin]
zone of inhibition at 1 mg/disc ([1]; 24 h, Table 2): 11 mm
zone of inhibition at 3 mg/disc ([1]; 24 h, Table 2, 3 mg/6 mm disk): 14 mm
zone of inhibition at 10 mg/disc ([1]; 24 h, Table 2, 10 mg/6 mm disk): 16.5 mm
zone of inhibition at 30 mg/disc ([1]; 24 h, Table 2, 30 mg/6 mm disk): 19.5 mm
zone of inhibition at 100 mg/disc ([1]; 24 h, Table 2, 100 mg/6 mm disk): 22 mm
Inhibition zone (mm) ([2]; 0.1 mg/6 mm disc): 8 mm
Inhibition zone (mm) ([2]; 1 mg/6 mm disc): 11 mm
Inhibition zone (mm) ([2]; 10 mg/6 mm disc): 15 mm
Inhibition zone (mm) ([3]; 0.1 mg/6 mm disc): 13.5 mm
Inhibition zone (mm) ([3]; 1 mg/6 mm disc): 20.5 mm
Inhibition zone (mm) ([3]; 10 mg/6 mm disc): 26.5 mm
Inhibition zone (mm) ([4]; 10 mg/6 mm disc): 7 mm
Inhibition zone (mm) ([5]; 0.1 mg/6 mm disc): 7 mm
Inhibition zone (mm) ([5]; 1 mg/6 mm disc): 16 mm
Inhibition zone (mm) ([5]; 10 mg/6 mm disc): 22 mm

CC[C@H]1OC(=O)C[C@@H](O)[C@H](C)[C@@H](O[C@@H]2O[C@H](C)C(O)C(N(C)C)C2O)[C@@H](CC=O)C[C@@H](C)C(=O)/C=C/C(C)=C/[C@@H]1Cn1cc(-c2ccc(-c3ccccc3)cc2)nn1 (some centres unmarked) [YT104, 23-(4-biphenyl-1H-1,2,3-triazol-1-yl)-23-Deoxy-5-O-mycaminosyltylonolide]
MIC ([7]; M. haemolytica isolate 1): 8 µg/mL (≈ 9.99 µM)
MIC ([7]; M. haemolytica isolate 2): 4 µg/mL (≈ 4.99 µM)
MIC ([7]; M. haemolytica isolate 3): 8 µg/mL (≈ 9.99 µM)
MIC ([8]; Actinobacillus pleuropneumoniae, pleuropneumoniae isolate 1): > 16 µg/mL
MICs ([8]; pleuropneumoniae isolate 2): >16 µg/mL
MICs ([8]; pleuropneumoniae isolate 3): >16 µg/mL
MICs ([8]; pleuropneumoniae isolate 4): >16 µg/mL
MICs ([8]; pleuropneumoniae isolate 5): >16 µg/mL
MICs ([8]; pleuropneumoniae isolate 6): >16 µg/mL

CC[C@H]1OC(=O)C[C@@H](O)[C@H](C)[C@@H](O[C@@H]2O[C@H](C)[C@@H](O)[C@H](N(C)C)[C@H]2O)[C@@H](CC=O)C[C@@H](C)C(=O)/C=C/C(C)=C/[C@@H]1CO [YT106, 5-O-mycaminosyltylonolide]
Inhibition zone (mm) ([1]; Table 4, 10 mg/6 mm disk): 8.5 mm
Inhibition zone (mm) ([1]; Table 4, 30 mg/6 mm disk): 12.5 mm
Inhibition zone (mm) ([1]; Table 4, 100 mg/6 mm disk): 15.0 mm
Inhibition zone (mm) ([6]; Table 5, 10 mg/6 mm disk): 9.0 mm
Inhibition zone (mm) ([6]; Table 5, 30 mg/6 mm disk): 13.0 mm
Inhibition zone (mm) ([6]; Table 5, 100 mg/6 mm disk): 17.0 mm

CCC1OC(=O)CC(O)C(C)C(OC2OC(C)C(O)C(N(C)C)C2O)C(CC=O)CC(C)C(=O)C=CC(C)=CC1CN=[N+]=[N-] (centres unmarked) [YT107, 23-azido-23-deoxo-5-O-mycaminosyltylonolide]
Inhibition zone (mm) ([1]; Table 4, 3 mg/6 mm disk): 12.0 mm
Inhibition zone (mm) ([1]; Table 4, 10 mg/6 mm disk): 16.0 mm
Inhibition zone (mm) ([1]; Table 4, 30 mg/6 mm disk): 18.0 mm
Inhibition zone (mm) ([1]; Table 4, 100 mg/6 mm disk): 21.5 mm
Inhibition zone (mm) ([6]; Table 5, 30 mg/6 mm disk): 10.5 mm
Inhibition zone (mm) ([6]; Table 5, 100 mg/6 mm disk): 15.0 mm

CC[C@H]1OC(=O)C[C@@H](O)[C@H](C)[C@@H](O[C@@H]2O[C@H](C)[C@@H](O)[C@H](N(C)C)[C@H]2O)[C@@H](CCn2cc(-c3ccccc3)nn2)C[C@@H](C)C(=O)/C=C/C(C)=C/[C@@H]1CO [YT112, 20-(4-phenyl-1H-1,2,3-triazol-1-yl)-20-deoxo-5-O-mycaminosyltylonolide]
Inhibition zone (mm) ([1]; Table 4, 3 mg/6 mm disk): 17.0 mm
Inhibition zone (mm) ([1]; Table 4, 10 mg/6 mm disk): 20.0 mm
Inhibition zone (mm) ([1]; Table 4, 30 mg/6 mm disk): 25.0 mm
Inhibition zone (mm) ([1]; Table 4, 100 mg/6 mm disk): 29.0 mm
Inhibition zone (mm) ([6]; Table 5, 100 mg/6 mm disk): 11.5 mm
MICs ([7]; M. haemolytica isolate 1): 8 µg/mL
MICs ([7]; M. haemolytica isolate 2): 4 µg/mL
MICs ([7]; M. haemolytica isolate 3): 8 µg/mL
MICs ([8]; pleuropneumoniae isolate 1): 4 µg/mL
MICs ([8]; pleuropneumoniae isolate 2): 4 µg/mL
MICs ([8]; pleuropneumoniae isolate 3): 4 µg/mL
MICs ([8]; pleuropneumoniae isolate 4): 8 µg/mL
MICs ([8]; pleuropneumoniae isolate 5): 4 µg/mL
MICs ([8]; pleuropneumoniae isolate 6): 8 µg/mL
